The record followed here is US20260308145A1, “CDK2 INHIBITORS AND METHODS OF USING SAME” (Shenzhen lonova Life Science Co., Ltd., priority 2023, published 2026).

SMILES strings stand for the structures.

What all share (type): biochemical
In assay [1] the target is T1, CDK4/cyclinD3 (Homo sapiens, UniProt P11802).
T1 construct: purchased Carna Biosciences 04-105
Description: Cyclin-dependent kinase activity assay (continuous ATP coupling assay), CDK4/cyclinD3. The note with it: CDK4/cyclinD3 60 nM, ATP 500 μM, Rb copeptide 500 μM, 15 min preincubation, pH 7.5, 1% DMSO. How it is done:
(§1) Cyclin-dependent kinase activity assay was measured by continuous ATP coupling assay in which ADP generated by kinase catalyzed phosphorylation was converted back to ATP by consuming phosphoenolpyruvate (PEP) and NADH catalyzed by pyruvate kinase/lactate dehydrogenase (PK/LDH). The assay compositions (see, Table 1) consist of one of the kinases, including CDK1/cyclinB1, CDK2/cyclinE1, CDK4/cyclinD3, and CDK6/cyclinD3 at the designated concentration, ATP at the corresponding Km of the kinase, copeptide and the ATP coupling system of PEP, NADH and PK/LDH. The assay was conducted in a reaction buffer of 20 mM Tris (pH 7.5) with 50 mM NaCl, 0.5 mM DTT and 0.04% BSA, and results were monitored continuously by fluorescence decrease of NADH with excitation at 340 nm and emission at 460 nm. Linear regression of the resulting reaction time traces gave reaction velocities.
(§2) For inhibition assay, compounds were first serial diluted in a 1:3 ratio from 10 μM to 0.05 nM using 10× reaction buffer. One of the CDK kinase was then introduced to compounds solution and incubated for 15 min. Finally, the compositions of ATP coupling system were introduced to the resulting solution to initiate the reaction. The final reaction mixture was in 1× reaction assay buffer with 1% DMSO. The half-maximal inhibition concentrations (IC50) for compounds were determined by fitting the plots of reaction velocity against compound concentration with 4-variable IC50 equation. The inhibition constants (Ki) were determined by fitting the same plots with quadratic/Morrison equation. Data were analyzed using commercially available software Graphpad Prism.
(§3) Exemplary results are presented as calculated IC50 values. • A: IC50≤10 nM • B: IC50>10 nM and IC50<100 nM • C: IC50≥100 nM

For assay [2], the target named is T2, CDK6/cyclinD3 (Homo sapiens, UniProt Q00534).
T2 construct: purchased Carna Biosciences 04-107
T2 sequence (Q00534 whole entry): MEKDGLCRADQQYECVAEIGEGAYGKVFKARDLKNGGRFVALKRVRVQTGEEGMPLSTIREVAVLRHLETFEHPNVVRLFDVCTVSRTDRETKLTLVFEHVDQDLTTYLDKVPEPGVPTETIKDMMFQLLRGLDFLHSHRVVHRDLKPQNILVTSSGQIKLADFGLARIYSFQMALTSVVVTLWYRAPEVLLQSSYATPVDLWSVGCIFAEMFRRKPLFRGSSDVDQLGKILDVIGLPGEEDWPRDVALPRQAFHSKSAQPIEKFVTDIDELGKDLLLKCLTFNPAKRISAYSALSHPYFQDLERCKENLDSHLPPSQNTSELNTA
T2 sequence (P30281 whole entry partner): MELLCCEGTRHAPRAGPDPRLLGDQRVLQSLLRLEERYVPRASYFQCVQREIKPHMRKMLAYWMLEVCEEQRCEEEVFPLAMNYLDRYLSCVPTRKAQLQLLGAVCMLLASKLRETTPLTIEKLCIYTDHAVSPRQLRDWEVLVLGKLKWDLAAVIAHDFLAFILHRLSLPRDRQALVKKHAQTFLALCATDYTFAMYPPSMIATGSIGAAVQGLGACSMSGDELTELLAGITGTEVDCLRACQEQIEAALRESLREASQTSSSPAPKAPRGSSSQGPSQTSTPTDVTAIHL
Description: Cyclin-dependent kinase activity assay (continuous ATP coupling assay), CDK6/cyclinD3. The note with it: CDK6/cyclinD3 25 nM, ATP 500 μM, Rb copeptide 500 μM, 15 min preincubation, pH 7.5, 1% DMSO. The protocol:
as §1, §2, §3

The target in assay [3] is T3, CDK1/cyclinB1 (Homo sapiens, UniProt P06493).
T3 construct: purchased Carna Biosciences 04-102
T3 sequence (P06493 whole entry): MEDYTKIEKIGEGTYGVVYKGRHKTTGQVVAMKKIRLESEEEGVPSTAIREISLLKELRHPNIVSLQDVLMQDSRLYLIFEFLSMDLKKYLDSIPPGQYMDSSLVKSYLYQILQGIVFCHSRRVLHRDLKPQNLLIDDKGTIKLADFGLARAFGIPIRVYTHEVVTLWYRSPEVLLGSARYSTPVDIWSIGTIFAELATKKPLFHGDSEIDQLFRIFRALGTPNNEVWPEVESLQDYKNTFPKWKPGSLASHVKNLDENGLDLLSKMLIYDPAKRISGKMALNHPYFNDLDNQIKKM
T3 sequence (P14635 whole entry partner): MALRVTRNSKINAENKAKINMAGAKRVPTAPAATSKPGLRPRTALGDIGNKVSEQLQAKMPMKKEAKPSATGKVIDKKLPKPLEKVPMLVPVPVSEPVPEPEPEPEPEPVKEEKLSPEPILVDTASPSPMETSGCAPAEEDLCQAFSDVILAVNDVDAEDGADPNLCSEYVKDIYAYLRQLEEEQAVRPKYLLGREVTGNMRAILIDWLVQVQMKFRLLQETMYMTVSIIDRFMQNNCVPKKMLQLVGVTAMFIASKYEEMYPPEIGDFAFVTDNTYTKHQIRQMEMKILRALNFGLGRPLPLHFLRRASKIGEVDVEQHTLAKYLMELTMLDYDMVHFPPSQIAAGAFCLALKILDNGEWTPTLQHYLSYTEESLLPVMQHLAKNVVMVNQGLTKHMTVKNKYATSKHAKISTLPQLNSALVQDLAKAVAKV
Briefly: Cyclin-dependent kinase activity assay (continuous ATP coupling assay), CDK1/cyclinB1. The note with it: CDK1/cyclinB1 10 nM, ATP 200 μM, Histone1 copeptide 100 μM, 15 min preincubation, pH 7.5, 1% DMSO. The protocol: as §1, §2, §3

Assay [4] concerns the target T4, CDK2/cyclinE1 (Homo sapiens, UniProt P24941).
T4 construct: purchased Carna Biosciences 04-165
Description: Cyclin-dependent kinase activity assay (continuous ATP coupling assay), CDK2/cyclinE1. The note with it: CDK2/cyclinE1 5 nM, ATP 300 μM, Rb copeptide 100 μM, 15 min preincubation, pH 7.5, 1% DMSO. The protocol: as §1, §2, §3

T1 sequence (P11802 whole entry): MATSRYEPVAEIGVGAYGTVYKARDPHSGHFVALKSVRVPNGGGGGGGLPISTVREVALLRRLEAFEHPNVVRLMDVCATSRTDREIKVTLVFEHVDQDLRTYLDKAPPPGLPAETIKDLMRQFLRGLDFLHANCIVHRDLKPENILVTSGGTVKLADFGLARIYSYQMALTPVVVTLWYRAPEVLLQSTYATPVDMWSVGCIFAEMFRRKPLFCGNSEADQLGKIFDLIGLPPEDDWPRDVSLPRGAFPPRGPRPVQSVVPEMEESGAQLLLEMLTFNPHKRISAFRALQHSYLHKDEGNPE
T1 sequence (P30281 whole entry partner): as the sequence (P30281 whole entry partner) above

Take `CNS(=O)(=O)c1ccc(Nc2ncc(C(F)(F)F)c(-n3cc([C@@H]4CCC[C@@H]4O)cn3)n2)cc1` (single isomer, unassigned) [Example 76]: the IC50 in assay [1] is 10 to 100 nM; in assay [2] it was at least 100 nM; in assay [3], at least 100 nM; in assay [4], 10 to 100 nM.
Turning to `CNS(=O)(=O)c1ccc(Nc2ncc(C(F)(F)F)c(-n3cccn3)n2)c(F)c1` [Example 27], the IC50 in assay [1], in assay [2], in assay [3] and in assay [4] was at least 100 nM each time.
On to `CS(=O)(=O)N1CCC(Nc2ncc(C(F)(F)F)c(-n3cccn3)n2)CC1` [Example 19], for which the IC50 in assay [1] was 10 to 100 nM; in assay [2] it was 10 to 100 nM; in assay [3], at least 100 nM; in assay [4] it was at most 10 nM.
Take `CNS(=O)(=O)c1ccc(Nc2ncc(C#N)c(-n3cccn3)n2)cc1` [Example 26]: the 50% inhibitory concentration (IC50) in assay [1] was at least 100 nM; in assay [2], at least 100 nM; in assay [3], at least 100 nM; in assay [4] it was 10 to 100 nM.
Consider `CNS(=O)(=O)c1ccc(Nc2ncc(C(F)(F)F)c(-n3cc(N4CCNCC4)cn3)n2)cc1` [Example 85], for which the half-maximal inhibitory concentration (IC50) in assay [1] was 10 to 100 nM; in assay [2] it was at least 100 nM; in assay [3], 10 to 100 nM; in assay [4], at most 10 nM.
With `O=S(=O)(NCCO)c1ccc(Nc2ncc(C(F)(F)F)c(-n3cccn3)n2)nc1` [Example 137], the IC50 in assay [1], in assay [2], in assay [3] and in assay [4] was at least 100 nM each time.
`CNS(=O)(=O)c1ccc(Nc2ncc(C(F)(F)F)c(-n3cc([C@H]4C[C@@](C)(O)C4)cn3)n2)cc1` (single isomer, unassigned) [Example 105, 4-((4-(4-((1r,3r)-3-hydroxy-3-methylcyclobutyl)-1H-pyrazol-1-yl)-5-(trifluoromethyl)pyrimidin-2-yl)amino)-N-methylbenzenesulfonamide]: the IC50 in assay [1], in assay [2], in assay [3] and in assay [4] was 10 to 100 nM each time.
`O=S(=O)(NCC1(CO)CC1)c1ccc(Nc2ncc(C(F)(F)F)c(-n3cccn3)n2)cc1` [Example 132]: the IC50 in assay [1] was at least 100 nM; in assay [2], at least 100 nM; in assay [3], at least 100 nM; in assay [4], 10 to 100 nM.
`NS(=O)(=O)c1ccc(Nc2ncc(C(F)(F)F)c(-n3cccn3)n2)cc1` [Example 18]: the half-inhibitory concentration (IC50) in assay [1] is at least 100 nM; in assay [2], at least 100 nM; in assay [3], at least 100 nM; in assay [4] it was at most 10 nM.
For `CNS(=O)(=O)c1ccc(Nc2ncc(C(F)(F)F)c(-n3cc([C@H]4CCCN4)cn3)n2)cc1` [Example 91, (R)—N-methyl-4-((4-(4-(pyrrolidin-2-yl)-1H-pyrazol-1-yl)-5-(trifluoromethyl)pyrimidin-2-yl)amino)benzenesulfonamide], the IC50 was 10 to 100 nM in assay [1], 10 to 100 nM in assay [2], 10 to 100 nM in assay [3] and at most 10 nM in assay [4].
For `CC(O)Cc1cnn(-c2nc(NC3CCN(S(C)(=O)=O)CC3)ncc2C(F)(F)F)c1` (single isomer, unassigned) [Example 107], the IC50 in assay [1] was 10 to 100 nM; in assay [2] it was 10 to 100 nM; in assay [3], 10 to 100 nM; in assay [4] it was at most 10 nM.
As for `FC(F)(F)c1cnc(Nc2ccc(S(F)(F)(F)(F)F)cc2)nc1-n1cccn1` [Example 34], the half-inhibitory concentration (IC50) in assay [1], in assay [2], in assay [3] and in assay [4] was at least 100 nM throughout.
Consider `CC(O)CNS(=O)(=O)c1ccc(Nc2ncc(C(F)(F)F)c(-n3cccn3)n2)cc1` (centres unmarked) [Example 110], for which the 50% inhibitory concentration (IC50) in assay [1] is at least 100 nM; in assay [2], at least 100 nM; in assay [3], at least 100 nM; in assay [4], at most 10 nM.
For `O=S(=O)(NCCO)c1ccc(Nc2ncc(Cl)c(-n3cccn3)n2)cc1` [Example 117], the half-maximal inhibitory concentration (IC50) in assay [1] is at least 100 nM; in assay [2], at least 100 nM; in assay [3] it was 10 to 100 nM; in assay [4], at most 10 nM.
For `CC(C)(O)c1cnn(-c2nc(NC3CCN(S(C)(=O)=O)CC3)ncc2F)c1` [Example 1, 2-(1-(5-fluoro-2-((1-(methylsulfonyl)piperidin-4-yl)amino)pyrimidin-4-yl)-1H-pyrazol-4-yl)propan-2-ol], the concentration for half-maximal inhibition (IC50) in assay [1] is 10 to 100 nM; in assay [2], 10 to 100 nM; in assay [3], at least 100 nM; in assay [4], 10 to 100 nM.
For `CNS(=O)(=O)c1ccc(Nc2ncc(C(F)(F)F)c(-n3cc(CC(C)(C)N)cn3)n2)cc1` [Example 72, 4-[[4-[4-(2-amino-2-methyl-propyl)pyrazol-1-yl]-5-(trifluoromethyl)pyrimidin-2-yl]amino]-N-methyl-benzene sulfonamide], the IC50 was 10 to 100 nM in assay [1], at least 100 nM in assay [2], 10 to 100 nM in assay [3] and at most 10 nM in assay [4].
On to `CNS(=O)(=O)c1ccc(Nc2ncc(C(F)(F)F)c(-n3cc(C[C@H](C)O)cn3)n2)cc1` (single isomer, unassigned) [Example 6], for which the IC50 in assay [1] was 10 to 100 nM; in assay [2] it was 10 to 100 nM; in assay [3] it was 10 to 100 nM; in assay [4] it was at most 10 nM.
In the case of `CS(=O)(=O)Nc1cccc(Nc2ncc(C(F)(F)F)c(-n3cccn3)n2)c1` [Example 121], the IC50 is at least 100 nM in assay [1], at least 100 nM in assay [2], at least 100 nM in assay [3] and 10 to 100 nM in assay [4].
`CCS(=O)(=O)N1C2CCC1CC(Nc1ncc(C(F)(F)F)c(-n3cccn3)n1)C2` (centres unmarked) [Example 31]: the half-maximal inhibitory concentration (IC50) in assay [1], in assay [2], in assay [3] and in assay [4] was at least 100 nM throughout.
Take `CNS(=O)(=O)c1ccc(Nc2ncc(F)c(-n3cccn3)n2)cc1` [Example 21]: the 50% inhibitory concentration (IC50) in assay [1] is at least 100 nM; in assay [2] it was at least 100 nM; in assay [3], at least 100 nM; in assay [4], 10 to 100 nM.
Consider `CNS(=O)(=O)c1ccc(Nc2ncc(C(F)(F)F)c(-n3cc(C4CCN(C)CC4)cn3)n2)cc1` [Example 80, N-methyl-4-[[4-[4-(1-methyl-4-piperidyl)pyrazol-1-yl]-5-(trifluoromethyl)pyrimidin-2-yl]amino]benzene sulfonamide], for which the IC50 in assay [1] is 10 to 100 nM; in assay [2], 10 to 100 nM; in assay [3], 10 to 100 nM; in assay [4] it was at most 10 nM.
For `CNS(=O)(=O)c1ccc(Nc2ncc(C(F)(F)F)c(-n3cc(C4CCCC4)cn3)n2)cc1` [Example 11, 4-((4-(4-cyclopentyl-1H-pyrazol-1-yl)-5-(trifluoromethyl)pyrimidin-2-yl)amino)-N-methylbenzenesulfonamide], the concentration for half-maximal inhibition (IC50) in assay [1] was at most 10 nM; in assay [2], 10 to 100 nM; in assay [3], 10 to 100 nM; in assay [4], at most 10 nM.
On to `Cc1cc(S(=O)(=O)NCCO)ccc1Nc1ncc(C(F)(F)F)c(-n2cccn2)n1` [Example 126], for which the IC50 in assay [1] is at least 100 nM; in assay [2] it was at least 100 nM; in assay [3] it was at least 100 nM; in assay [4], at most 10 nM.
On to `CNS(=O)(=O)c1ccc(Nc2ncc(Br)c(-n3cc(CC(C)(C)O)cn3)n2)cc1` [Example 68], for which the half-maximal inhibitory concentration (IC50) in assay [1] is 10 to 100 nM; in assay [2], 10 to 100 nM; in assay [3] it was 10 to 100 nM; in assay [4], at most 10 nM.
Take `CNS(=O)(=O)c1ccc(Nc2ncc(C(F)(F)F)c(-n3cc([C@H]4C[C@](C)(O)C4)cn3)n2)cc1` (single isomer, unassigned) [Example 104, 4-((4-(4-((1s,3s)-3-hydroxy-3-methylcyclobutyl)-1H-pyrazol-1-yl)-5-(trifluoromethyl)pyrimidin-2-yl)amino)-N-methylbenzenesulfonamide]: the IC50 in assay [1] was 10 to 100 nM; in assay [2], at least 100 nM; in assay [3], at least 100 nM; in assay [4] it was 10 to 100 nM.
As to `O=C(O)CNS(=O)(=O)c1ccc(Nc2ncc(C(F)(F)F)c(-n3cccn3)n2)cc1` [Example 138, ((4-((4-(1H-pyrazol-1-yl)-5-(trifluoromethyl)pyrimidin-2-yl)amino)phenyl)sulfonyl)glycine], the IC50 in assay [1] is at least 100 nM; in assay [2], at least 100 nM; in assay [3] it was at least 100 nM; in assay [4] it was at most 10 nM.
